The target of assay [1] is adenosine receptors (rat striatal membranes, [3H]-CGS21680) (Rattus norvegicus, UniProt P30543). The experiment in a line: Ki from displacement of [3H]-CGS21680 in rat striatal membranes at pH 5.5 and pH 7.4. It counts as binding. Details: from tissue; host or cells: rat striatum (membranes). Conditions: 2 nM [3H]-CGS21680, 90 minutes at 22° C. (Loss of bound radioactivity is the signal in a displacement assay; it reports binding, not function.)

Assay [2] concerns chronic constriction injury model of neuropathic pain. Put plainly: static allodynia, chronic constriction injury of the rat sciatic nerve. It counts as in vivo. Conditions: rat CCI, p.o., dose response. From the text: The total dose administered is shown on the horizontal axis, and the paw withdrawal threshold (PWT) on the vertical axis.
The mark [3] stands for this setting: pH 5.5, read-out: (Ki) nM (pH 5.5).
[4] abbreviates: pH 7.4, read-out: (Ki) nM (pH 7.4).

Read-outs that look alike come from different tables or passages of the source.

Sequence of adenosine receptors (rat striatal membranes, [3H]-CGS21680) (P30543 whole entry): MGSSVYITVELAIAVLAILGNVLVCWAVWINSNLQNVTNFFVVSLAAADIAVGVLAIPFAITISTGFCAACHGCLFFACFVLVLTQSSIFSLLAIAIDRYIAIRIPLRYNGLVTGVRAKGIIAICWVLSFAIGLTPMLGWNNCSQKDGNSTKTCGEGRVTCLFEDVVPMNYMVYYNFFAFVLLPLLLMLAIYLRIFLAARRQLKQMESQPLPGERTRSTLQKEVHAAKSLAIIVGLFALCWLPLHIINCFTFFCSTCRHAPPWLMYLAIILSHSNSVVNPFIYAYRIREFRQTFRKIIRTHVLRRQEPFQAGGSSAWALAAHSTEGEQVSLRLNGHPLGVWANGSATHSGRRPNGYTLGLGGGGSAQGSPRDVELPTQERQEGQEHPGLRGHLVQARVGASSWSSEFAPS

`COc1nc(NCc2ccccc2)c2ncn([C@@H]3O[C@H](CO)[C@@H](O)[C@H]3O)c2n1` [Compound 58]: the inhibition constant Ki in assay [1] (setting [3]) came out at 4.5 nM; in assay [1] (setting [4]), 6100 nM.

With `Cc1nc2c(N)nc(NC3CCCCC3)nc2n1[C@@H]1O[C@H](CO)[C@@H](O)[C@H]1O` [Compound 59], the Ki in assay [1] (setting [3]) was 31 nM; in assay [1] (setting [4]) it was 3900 nM.

On to `Cc1nc2c(N)nc(NC3CCCC3)nc2n1[C@@H]1O[C@H](CO)[C@@H](O)[C@H]1O` [Compound 60], for which the values for the Ki in assay [1] (setting [3]) and in assay [1] (setting [4]) were 49 nM and 2400 nM, respectively.

`CCCCCCNc1nc(N)c2nc(C)n([C@@H]3O[C@H](CO)[C@@H](O)[C@H]3O)c2n1` [Compound 61]: the figures for the Ki in assay [1] (setting [3]) and in assay [1] (setting [4]) were 130 nM and 4800 nM, respectively.

For the compound `NCC1(CC(=O)O)CCCCC1` [gabapentin, reference compound], the “inhibition of static allodynia (paw withdrawal threshold)” value in assay [2] is “inhibit static allodynia”.

What is called Ki is a measure of affinity in units of concentration, obtained from inhibition or displacement.
